In patent publication US5919668A, “Non-reducing saccharide and its production and use” (Kabushiki Kaisha Hayashibara Seibutsu Kagaku Kenkyujo, priority 1994, dated 1999):

Tests used:
[1] = Maillard reaction (coloration with glycine, absorbance at 480 nm); assay type: physicochemical; details: for Coloration degree at 480 nm: 10% saccharide, 1% glycine, 50 mM phosphate buffer pH7.0, 100° C., 90 minutes, 1 cm cuvette; for Coloration degree relative to maltooligosaccharides as material: 480 nm, with glycine
Procedure: Solutions of 10% saccharide preparation PI, PII, PIII, PIV or PV prepared in Experiment 4 and 1% glycine in 50 mM phosphate buffer (pH7.0) were incubated at 100° C. for 90 minuets, cooled and determined in 1 cm cuvette for absorbance at 480 nm. As control, maltotriose, maltotetraose, maltopentaose, maltohexaose and maltoheptaose which were used as the starting materials were treated similarly as above and determined for absorbance at 480 nm.
10% High-purity trehalose preparation, purity of 99.5%, obtained by the method in Experiment 17 and 1% glycine in 50 mM phosphate buffer (pH7.0) was incubated at 100° C. for 90 minutes, cooled and measured in lcm cuvette for absorbance at 480 nm. As control, glucose and maltose were treated similarly as above and then measured for absorbance at 480 nm.

[2] = test system: acetone-pulverized rat small intestine enzyme; experiment: Degradation by acetone-pulverized rat small intestine enzyme; assay type: biochemical; details: for Glucose in degradation product by acetone-powdered rat small intestine enzyme / Others in degradation product by acetone-powdered rat small intestine enzyme / Trehalose in degradation product by acetone-powdered rat small intestine enzyme: pH6.0, 37° C., 18 hours
Procedure: The non-reducing saccharide preparations PI, PII, PIII, PIV and PV as substrates prepared in Experiment 4 were subjected to pig pancreas alpha-amylase, rice alpha-glucosidase and acetone-pulverized rat small intestine enzyme, all of which were products of Sigma Chemical Co., St Louis, Mo., USA, and the degradation products were analyzed on high-performance liquid chromatography for saccharide composition. The reaction by alpha-amylase was carried out by dissolving 10 mg of either substrate in 1 ml of 50 mM phosphate buffer (pH6.9), adding thereto one unit of alpha-amylase and incubating at 37° C. for 18 hours. The reaction by alpha-glucosidase was conducted similarly as in the case of alpha-amylase except that 50 mM acetate buffer (pH4.0) was used. In the case of acetone-pulverized rat small intestine enzyme, the reaction was conducted similarly as in the case of alpha-amylase except that 50 mM maleic acid buffer (pH6.0) was used.

mice = experiment: Acute toxicity test, oral administration in mice; assay type: in vivo; details: for Animal death at the possible highest dose: oral, mice; for LD50: mouse, in vivo, po
Procedure: Acute toxicity tests were conducted on the non-reducing saccharide preparations PI, PII, PIII, PIV and PV prepared in Experiment 4, where they were orally administered to 7 week-old dd mice. […] Thus the LD50 of these saccharides was at least 50 g/kg or higher.
An acute toxicity test was conducted on a high-purity trehalose preparation obtained by the method in Experiment 17, purity of 99.5%, where it was orally administered in mice. […] Thus its LD50 would be briefly 50 g/kg or higher.

| SMILES | Coloration degree at 480 nm [1] | Coloration degree relative to maltooligosaccharides as material [1] | Degradation by acetone-pulverized rat small intestine enzyme (in words) [2] | Glucose in degradation product by acetone-powdered rat small intestine enzyme [2] [%] | Others in degradation product by acetone-powdered rat small intestine enzyme [2] [%] | Trehalose in degradation product by acetone-powdered rat small intestine enzyme [2] [%] | Animal death at the possible highest dose (mice) | LD50 (mice) |
| --- | --- | --- | --- | --- | --- | --- | --- | --- |
| OC[C@H]1O[C@H](O[C@H]2O[C@H](CO)[C@@H](O[C@H]3O[C@H](CO)[C@@H](O)[C@H](O)[C@H]3O)[C@H](O)[C@H]2O)[C@H](O)[C@@H](O)[C@@H]1O [PI, alpha-glucosyl trehalose] | 0.027 | 3-6% | degradable | 37.2 | 0.4 | 62.4 | no animal death was observed | – |
| OC[C@H]1O[C@H](O[C@H]2O[C@H](CO)[C@@H](O[C@H]3O[C@H](CO)[C@@H](O[C@H]4O[C@H](CO)[C@@H](O)[C@H](O)[C@H]4O)[C@H](O)[C@H]3O)[C@H](O)[C@H]2O)[C@H](O)[C@@H](O)[C@@H]1O [PII, alpha-maltosyl trehalose] | 0.018 | 3-6% | degradable | 52.5 | 0.4 | 47.1 | no animal death was observed | – |
| OC[C@H]1O[C@H](O[C@H]2O[C@H](CO)[C@@H](O[C@H]3O[C@H](CO)[C@@H](O[C@H]4O[C@H](CO)[C@@H](O[C@H]5O[C@H](CO)[C@@H](O)[C@H](O)[C@H]5O)[C@H](O)[C@H]4O)[C@H](O)[C@H]3O)[C@H](O)[C@H]2O)[C@H](O)[C@@H](O)[C@@H]1O [PIII, alpha-maltotriosyl trehalose] | 0.012 | 3-6% | degradable | 62.0 | 0.4 | 37.6 | no animal death was observed | – |
| OC[C@H]1O[C@H](O[C@H]2O[C@H](CO)[C@@H](O[C@H]3O[C@H](CO)[C@@H](O[C@H]4O[C@H](CO)[C@@H](O[C@H]5O[C@H](CO)[C@@H](O[C@H]6O[C@H](CO)[C@@H](O)[C@H](O)[C@H]6O)[C@H](O)[C@H]5O)[C@H](O)[C@H]4O)[C@H](O)[C@H]3O)[C@H](O)[C@H]2O)[C@H](O)[C@@H](O)[C@@H]1O [PIV, alpha-maltotetraosyl trehalose] | – | 3-6% | degradable | 68.8 | 0.4 | 30.8 | no animal death was observed | at least 50 g/kg |
| OC[C@H]1O[C@H](O[C@H]2O[C@H](CO)[C@@H](O[C@H]3O[C@H](CO)[C@@H](O[C@H]4O[C@H](CO)[C@@H](O[C@H]5O[C@H](CO)[C@@H](O[C@H]6O[C@H](CO)[C@@H](O[C@H]7O[C@H](CO)[C@@H](O)[C@H](O)[C@H]7O)[C@H](O)[C@H]6O)[C@H](O)[C@H]5O)[C@H](O)[C@H]4O)[C@H](O)[C@H]3O)[C@H](O)[C@H]2O)[C@H](O)[C@@H](O)[C@@H]1O [PV, alpha-maltopentaosyl trehalose] | – | 3-6% | degradable | 73.4 | 0.1 | 26.5 | no animal death was observed | at least 50 g/kg |
